The subject of one assay is PCB490-3 (human epithelioid sarcoma primary culture). How it is done: (§1)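 Roche open-access kinase inhibitor screen (223 compounds) on human epithelioid sarcoma primary cultures from three spatially distinct regions of tumor PCB490. 384-well plates, 72 h, CellTiter-Glo viability; IC50 by Hill curve fit. 100000 nM = no IC50 reached. Compound ids carry a plate-well prefix, which is stripped.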
For the next assay, the system named is PCB490-4 (human epithelioid sarcoma primary culture). On the procedure:
as §1

For a further assay, the system named is PCB490-5 (human epithelioid sarcoma primary culture). On the procedure: as §1

Take `Nc1[nH]nc2nc(-c3cccs3)cc(C(F)(F)F)c12`: the IC50 cell viability with PCB490-3, in the assay with PCB490-4 and with PCB490-5 was greater than 100 µM throughout.
Consider `CCc1c(C)nc2sc3c(N)ncnc3c2c1C`, for which the IC50 cell viability in the assay with PCB490-3, in the assay with PCB490-4 and in the assay with PCB490-5 was greater than 100 µM throughout.
Consider `COc1ccc(CCN=C2NC(=O)/C(=C/c3ccc4ncccc4c3)S2)cc1`, for which the IC50 cell viability in the assay on PCB490-3, with PCB490-4 and in the assay with PCB490-5 was greater than 100 µM throughout.
Turning to `COc1cccc(C2=C(c3cn(C)c4ccc(Cl)cc34)C(=O)NC2=O)c1`, the IC50 cell viability with PCB490-3, in the assay with PCB490-4 and in the assay with PCB490-5 was greater than 100 µM in each case.
With `O=C1NC(O)C(c2c[nH]c3ccccc23)=C1c1c[nH]c2ccccc12` (centres undefined), the IC50 cell viability with PCB490-3, in the assay on PCB490-4 and with PCB490-5 was greater than 100 µM each time.
As to `CCOc1ccccc1CCN=C1NC(=O)/C(=C/c2ccc3ncccc3c2)S1`, the IC50 cell viability in the assay with PCB490-3, with PCB490-4 and in the assay on PCB490-5 was greater than 100 µM in each case.
Turning to `Nc1c(C(=O)c2ccc(CCCN3CCOCC3)cc2)cnn1-c1ccc(F)cc1`, the IC50 cell viability in the assay with PCB490-3, with PCB490-4 and with PCB490-5 was greater than 100 µM each time.
Turning to `Nc1c(C(=O)c2cccc(-c3cccnc3)c2)cnn1-c1ccc(F)cc1F`, the IC50 cell viability in the assay with PCB490-3, in the assay on PCB490-4 and in the assay with PCB490-5 was greater than 100 µM throughout.
Regarding `O=C1NC(=NCCc2ccccc2Cl)S/C1=C\c1ccc2ncccc2c1`, the IC50 cell viability in the assay with PCB490-3, in the assay on PCB490-4 and with PCB490-5 was greater than 100 µM each time.
Turning to `COc1cc[nH]c1/C=C1\C(=O)Nc2ccc(F)c(I)c21`, the IC50 cell viability in the assay with PCB490-3, in the assay on PCB490-4 and in the assay on PCB490-5 was greater than 100 µM each time.
In the case of `Cn1cc(C2=C(c3cn(C)c4cc(C(=O)O)ccc34)C(=O)NC2=O)c2ccccc21`, the IC50 cell viability in the assay on PCB490-3, with PCB490-4 and in the assay with PCB490-5 was greater than 100 µM in each case.
Turning to `Cn1cc(C2=C(n3ccc4ccccc43)C(=O)NC2=O)c2ccccc21`, the IC50 cell viability in the assay on PCB490-3, in the assay on PCB490-4 and in the assay on PCB490-5 was greater than 100 µM each time.
Consider `N#Cc1cccc(C(=O)c2cnn(-c3ccc(F)cc3)c2N)c1`, for which the IC50 cell viability with PCB490-3, in the assay with PCB490-4 and in the assay on PCB490-5 was greater than 100 µM in each case.
For `Cn1cc(C2=C(Sc3ccccc3)C(=O)NC2=O)c2ccccc21`, the IC50 cell viability in the assay with PCB490-3, with PCB490-4 and in the assay on PCB490-5 was greater than 100 µM throughout.
Consider `Cn1c(=O)c(Oc2ccc(F)cc2F)cc2cnc(NC3CCS(=O)(=O)CC3)nc21`, for which the IC50 cell viability in the assay with PCB490-3, with PCB490-4 and in the assay on PCB490-5 was greater than 100 µM in each case.
Turning to `CN[C@H](C#Cc1c(F)ccc2c1/C(=C/c1[nH]ccc1OC)C(=O)N2)CO`, the IC50 cell viability is greater than 100 µM with PCB490-3, greater than 100 µM with PCB490-4 and 1.77 µM in the assay with PCB490-5.
As for `O=C1NC(=NCc2cccs2)O/C1=C\c1ccc2ncccc2c1`, the IC50 cell viability in the assay with PCB490-3, in the assay with PCB490-4 and with PCB490-5 was greater than 100 µM each time.
As to `Cn1cc(C2=C(c3cccc(NCC(O)CO)c3)C(=O)NC2=O)c2cc(Cl)ccc21` (centres undefined), the values for the IC50 cell viability with PCB490-3, with PCB490-4 and in the assay on PCB490-5 were greater than 100 µM, 2 µM and 2.34 µM, respectively.
With `N#Cc1c(C(=O)c2ccccc2)cnn1-c1ccccc1`, the IC50 cell viability with PCB490-3, with PCB490-4 and in the assay on PCB490-5 was greater than 100 µM throughout.
On to `Cn1cc(C2=C(c3cn(CCN)c4ccccc34)C(=O)NC2=O)c2ccccc21`, for which the IC50 cell viability with PCB490-3, with PCB490-4 and with PCB490-5 was greater than 100 µM throughout.
Turning to `Cn1cc(C2=C(c3cccc([N+](=O)[O-])c3)C(=O)NC2=O)c2ccccc21`, the IC50 cell viability with PCB490-3, with PCB490-4 and in the assay with PCB490-5 was greater than 100 µM in each case.
As to `N#CCn1c(=O)c(Oc2ccc(F)cc2F)cc2cnc(NC3CCOCC3)nc21`, the IC50 cell viability in the assay on PCB490-3, with PCB490-4 and in the assay with PCB490-5 was greater than 100 µM in each case.
In the case of `CC(=O)N1CCC(Nc2ncc3cc(Oc4ccc(F)cc4F)c(=O)n(C)c3n2)CC1`, the IC50 cell viability in the assay on PCB490-3, with PCB490-4 and with PCB490-5 was greater than 100 µM in each case.
On to `CCCn1cc(C2=C(c3cn(C)c4ccccc34)C(=O)NC2=O)c2ccccc21`, for which the IC50 cell viability in the assay on PCB490-3, in the assay with PCB490-4 and in the assay with PCB490-5 was greater than 100 µM throughout.
`CC(=O)N[C@@H](Cc1ccc(OP(=O)(O)O)cc1)C(=O)N[C@H]1CCC(=O)N2CCC[C@@H](C(=O)NCc3ccccc3)N2C1=O`: the IC50 cell viability with PCB490-3, in the assay on PCB490-4 and in the assay with PCB490-5 was greater than 100 µM each time.
As for `Cn1c(=O)c(Oc2ccc(F)cc2F)cc2cnc(NCC(C)(C)O)nc21`, the IC50 cell viability with PCB490-3, in the assay with PCB490-4 and with PCB490-5 was greater than 100 µM each time.
As for `CC(=O)N[C@@H](Cc1ccc(OP(=O)(O)O)cc1)C(=O)N[C@H]1CCC(=O)N2CCC[C@@H](C(=O)NCc3ccc(Cl)cc3)N2C1=O`, the IC50 cell viability with PCB490-3, with PCB490-4 and in the assay on PCB490-5 was greater than 100 µM in each case.
Take `COc1ccc(C2=C(c3cn(C)c4ccccc34)C(=O)NC2=O)cc1OC`: the IC50 cell viability with PCB490-3, with PCB490-4 and in the assay on PCB490-5 was greater than 100 µM each time.
Take `Cn1cc(C2=C(c3c4n(c5ccccc35)CCN(C(N)=S)C4)C(=O)NC2=O)c2ccccc21`: the IC50 cell viability in the assay with PCB490-3, with PCB490-4 and in the assay with PCB490-5 was greater than 100 µM in each case.
In the case of `Nc1c(C(=O)c2cccc(C(O)CO)c2)cnn1-c1ccc(F)cc1` (centres undefined), the IC50 cell viability in the assay on PCB490-3, with PCB490-4 and in the assay with PCB490-5 was greater than 100 µM throughout.
With `CCCCCNC(=O)[C@@H]1CCCN2C(=O)CC[C@H](NC(=O)[C@H](Cc3ccc(OP(=O)(O)O)cc3)NC(C)=O)C(=O)N12`, the IC50 cell viability in the assay on PCB490-3, in the assay on PCB490-4 and in the assay on PCB490-5 was greater than 100 µM throughout.
For `COc1ccc(O)c(C(=O)c2ccc(C(=O)O[C@@H]3CCCNC[C@H]3NC(=O)c3ccncc3)cc2)c1F`, the IC50 cell viability in the assay with PCB490-3, with PCB490-4 and in the assay with PCB490-5 was greater than 100 µM in each case.
On to `COc1ccc(N2Cc3cnc(Nc4ccccc4)nc3N([C@@H]3CC[C@@H](O)C3)C2=O)cc1`, for which the results for the IC50 cell viability in the assay on PCB490-3, in the assay on PCB490-4 and in the assay with PCB490-5 were 2.59 µM, 1.79 µM and 2.16 µM, respectively.
The matching figures for `COc1cc[nH]c1/C=C1\C(=O)Nc2ccc([N+](=O)[O-])c(N3CC[C@@H](O)C3)c21`: 4.87 µM, 7.83 µM and 4.71 µM.
The matching figures for `Cn1cc(C2=C(c3cccc(Cl)c3)C(=O)NC2=O)c2ccccc21`: greater than 100 µM, greater than 100 µM and greater than 100 µM.
On the same counts, the results for `COc1ccc(F)cc1C(=O)c1cnc(NC2CCN(S(C)(=O)=O)CC2)nc1N` are greater than 100 µM, greater than 100 µM and greater than 100 µM.
Take `CN=C1NC(=O)/C(=C/c2ccc3ncccc3c2)S1`: the IC50 cell viability in the assay with PCB490-3, in the assay on PCB490-4 and in the assay with PCB490-5 was greater than 100 µM each time.
For `Cn1c(=O)c(Oc2ccccc2F)cc2cnc(NC3CCOCC3)nc21`, the IC50 cell viability with PCB490-3, in the assay with PCB490-4 and in the assay with PCB490-5 was greater than 100 µM each time.
As for `COc1cc(F)c(F)cc1C(=O)c1cnc(NC2CCN(S(C)(=O)=O)CC2)nc1N`, the IC50 cell viability with PCB490-3, in the assay with PCB490-4 and in the assay with PCB490-5 was greater than 100 µM in each case.
Consider `N=C1N=C(N)/C(=C/c2ccc3ncccc3c2)S1`, for which the IC50 cell viability with PCB490-3, in the assay on PCB490-4 and with PCB490-5 was greater than 100 µM each time.
For `O=C1NC(=NCc2ccccc2Cl)S/C1=C\c1ccc2ncccc2c1`, the IC50 cell viability in the assay with PCB490-3, with PCB490-4 and with PCB490-5 was greater than 100 µM each time.
For `Cn1cc(C2=C(c3c4n(c5ccccc35)CCC(CN)CC4)C(=O)NC2=O)c2ccccc21` (centres undefined), the IC50 cell viability in the assay on PCB490-3, in the assay with PCB490-4 and with PCB490-5 was greater than 100 µM throughout.
Consider `Cc1[nH]nc2c1N=C(c1ccccc1F)c1cc(C(N)=O)ccc1N2`, for which the IC50 cell viability with PCB490-3 was greater than 100 µM; in the assay with PCB490-4, 2.66 µM; in the assay with PCB490-5, 4.23 µM.
On the same counts, the results for `Cn1cc(C2=C(c3cn(CCCN)c4ccccc34)C(=O)NC2=O)c2ccccc21` are greater than 100 µM, greater than 100 µM and greater than 100 µM.
The matching figures for `COc1cccc2c1c(C1=C(c3cn(C)c4ccccc34)C(=O)NC1=O)cn2C`: greater than 100 µM, greater than 100 µM and greater than 100 µM.
The matching figures for `Cn1cc(C2=C(N3CCOCC3)C(=O)NC2=O)c2ccccc21`: greater than 100 µM, greater than 100 µM and greater than 100 µM.
On to `NC1=NC(=O)/C(=C/c2ccc3ncccc3c2)S1`, for which the IC50 cell viability in the assay on PCB490-3, in the assay with PCB490-4 and in the assay on PCB490-5 was greater than 100 µM each time.
`O=c1c(Oc2ccc(F)cc2F)cc2cnc(NC3CCOCC3)nc2n1C1CC1`: the IC50 cell viability with PCB490-3, in the assay on PCB490-4 and in the assay with PCB490-5 was greater than 100 µM each time.
